Experimental data taken from ChEMBL document CHEMBL1201862, “PubChem BioAssay data set” (2004).
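Where inhibition never reached the appropriate level, the endpoint shown equals the highest concentration tested. Otherwise, values were interpolated linearly from a five-concentration, 48-hour dose response in 96-well plates. Abbreviation: GI50, concentration required for 50% inhibition of growth.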 Activity calls are given as the source filed them. Cut-off read from the data, not from the text of the source: active = GI50 up to about 1.1 µM and inactive = higher.

Experiments:
Experiment in all cases: DTP human tumour cell line panel, 48 h
[1] = tested on: SF-539
[2] = tested on: UACC-62
[3] = tested on: U-251
[4] = tested on: IGROV-1
[5] = tested on: SF-295
[6] = tested on: COLO 205
[7] = tested on: RPMI-8226
[8] = tested on: TK-10
[9] = tested on: HT-29
[10] = tested on: SW-620
[11] = tested on: NCI-H460
[12] = tested on: HOP-62
[13] = tested on: CCRF-CEM
[14] = tested on: NCI-H522
[15] = tested on: SK-MEL-2
[16] = tested on: KM12
[17] = tested on: SR
[18] = tested on: MDA-MB-435
[19] = tested on: MDA-N

Compound | GI50 [1] | GI50 [2] | GI50 [3] | GI50 [4] | GI50 [5] | GI50 [6] | GI50 [7] | GI50 [8] | GI50 [9] | GI50 [10] | GI50 [11] | GI50 [12] | GI50 [13] | GI50 [14] | GI50 [15] | GI50 [16] | GI50 [17] | GI50 [18] | GI50 [19]
CC1OC(n2ccc(=O)[nH]c2=O)C=C(OC(=O)c2ccccc2)C1=O (stereo not given) | > 100 µM (inactive) | > 100 µM (inactive) | 29 µM (inactive) | > 100 µM (inactive) | 51.1 µM (inactive) | > 100 µM (inactive) | > 100 µM (inactive) | 49 µM (inactive) | 44.6 µM (inactive) | 64.6 µM (inactive) | 48.6 µM (inactive) | 71.9 µM (inactive) | > 100 µM (inactive) | – | – | – | – | – | –
CC(=O)OCC1OC(N=[N+]=[N-])C(OC(C)=O)C(OC(C)=O)C1OC1OC(COC(C)=O)C(OC(C)=O)C(OC(C)=O)C1OC(C)=O (stereo not given) | 58.6 µM (inactive) | > 100 µM (inactive) | > 100 µM (inactive) | > 100 µM (inactive) | > 100 µM (inactive) | > 100 µM (inactive) | > 100 µM (inactive) | 81.5 µM (inactive) | > 100 µM (inactive) | > 100 µM (inactive) | > 100 µM (inactive) | – | > 100 µM (inactive) | > 100 µM (inactive) | > 100 µM (inactive) | > 100 µM (inactive) | – | – | –
C[Si](C)(C)/C=C/CN1C(=O)CCC1O (stereo not given) | > 100 µM (inactive) | > 100 µM (inactive) | > 100 µM (inactive) | > 100 µM (inactive) | > 100 µM (inactive) | > 100 µM (inactive) | > 100 µM (inactive) | > 100 µM (inactive) | > 100 µM (inactive) | > 100 µM (inactive) | > 100 µM (inactive) | > 100 µM (inactive) | > 100 µM (inactive) | > 100 µM (inactive) | > 100 µM (inactive) | > 100 µM (inactive) | > 100 µM (inactive) | – | –
FC(F)(F)c1cccc2ns[s+]c12 | > 100 µM (inactive) | > 100 µM (inactive) | > 100 µM (inactive) | > 100 µM (inactive) | > 100 µM (inactive) | > 100 µM (inactive) | – | > 100 µM (inactive) | > 100 µM (inactive) | > 100 µM (inactive) | > 100 µM (inactive) | > 100 µM (inactive) | > 100 µM (inactive) | > 100 µM (inactive) | > 100 µM (inactive) | > 100 µM (inactive) | > 100 µM (inactive) | – | –
CCOc1nc(OCC)nc(-c2cccn2-c2ccccc2)n1 | 51.5 µM (inactive) | 27.7 µM (inactive) | 18.5 µM (inactive) | 29.6 µM (inactive) | 33.7 µM (inactive) | – | – | 23 µM (inactive) | 34.6 µM (inactive) | 50.4 µM (inactive) | 29 µM (inactive) | 46.1 µM (inactive) | 29.6 µM (inactive) | 32.7 µM (inactive) | 34.8 µM (inactive) | 28.5 µM (inactive) | 26.3 µM (inactive) | – | –
O=C(c1ccccc1)c1c(C(F)(F)F)[n+]([O-])c2cc(F)c(F)cc2[n+]1[O-] | 0.838 µM (active) | 2.22 µM (inactive) | 0.377 µM (active) | 1.6 µM (inactive) | 0.946 µM (active) | 3.86 µM (inactive) | 0.679 µM (active) | 0.195 µM (active) | 0.586 µM (active) | 0.499 µM (active) | 3.21 µM (inactive) | 1.25 µM (inactive) | – | 0.746 µM (active) | 1.79 µM (inactive) | 1.07 µM (active) | < 0.01 µM (active) | 1.53 µM (inactive) | –
Nn1c(S)nnc1N/N=C1/C(=O)Nc2c(Cl)cc(Cl)cc21 | > 100 µM (inactive) | > 100 µM (inactive) | > 100 µM (inactive) | 92.9 µM (inactive) | > 100 µM (inactive) | > 100 µM (inactive) | > 100 µM (inactive) | > 100 µM (inactive) | > 100 µM (inactive) | > 100 µM (inactive) | > 100 µM (inactive) | 50.4 µM (inactive) | 37.1 µM (inactive) | 95.1 µM (inactive) | > 100 µM (inactive) | > 100 µM (inactive) | 38.3 µM (inactive) | – | –
O=C1Nc2ccccc2/C1=N/Nc1nc(-c2ccc(Cl)c(Cl)c2)cs1 | 73.5 µM (inactive) | – | 77.4 µM (inactive) | 9.73 µM (inactive) | > 100 µM (inactive) | 29.9 µM (inactive) | – | 66.2 µM (inactive) | 56 µM (inactive) | > 100 µM (inactive) | 17.6 µM (inactive) | > 100 µM (inactive) | – | – | 43 µM (inactive) | 29.6 µM (inactive) | – | 72.1 µM (inactive) | 47 µM (inactive)
O=C(CC1C(=O)Nc2ccccc2[S+]1[O-])Nc1cc(Cl)ccc1Cl (stereo not given) | > 100 µM (inactive) | > 100 µM (inactive) | > 100 µM (inactive) | > 100 µM (inactive) | > 100 µM (inactive) | – | > 100 µM (inactive) | > 100 µM (inactive) | > 100 µM (inactive) | > 100 µM (inactive) | > 100 µM (inactive) | – | > 100 µM (inactive) | > 100 µM (inactive) | > 100 µM (inactive) | – | > 100 µM (inactive) | – | –
CCc1cccc(C(C)CC)c1NC(=O)CC1C(=O)Nc2ccccc2S1(=O)=O (stereo not given) | 21.5 µM (inactive) | 22.3 µM (inactive) | 40.3 µM (inactive) | 20.6 µM (inactive) | 25.1 µM (inactive) | 20.9 µM (inactive) | 5.38 µM (inactive) | 28.7 µM (inactive) | 15.2 µM (inactive) | 8.61 µM (inactive) | 23.9 µM (inactive) | 36.8 µM (inactive) | 5.22 µM (inactive) | – | 64.6 µM (inactive) | 11.5 µM (inactive) | – | – | –
COc1ccccc1C#C/C=C\C#Cc1ccccc1C#N | 18.6 µM (inactive) | 23.7 µM (inactive) | 9.18 µM (inactive) | 10.4 µM (inactive) | 6.58 µM (inactive) | 13.3 µM (inactive) | – | 20.7 µM (inactive) | 6.28 µM (inactive) | 6.32 µM (inactive) | 13.3 µM (inactive) | 14.5 µM (inactive) | 5.26 µM (inactive) | 5.14 µM (inactive) | 14.9 µM (inactive) | 6.37 µM (inactive) | 4.08 µM (inactive) | 3.24 µM (inactive) | –
O=C(c1ccncc1)n1nc(-c2ccccc2)c(/N=N/c2ccc([N+](=O)[O-])cc2)c1-c1ccccc1 | 89.5 µM (inactive) | 90.8 µM (inactive) | – | > 100 µM (inactive) | 44.7 µM (inactive) | 79.8 µM (inactive) | 28.4 µM (inactive) | 57.8 µM (inactive) | 38.7 µM (inactive) | > 100 µM (inactive) | – | 39.4 µM (inactive) | > 10 µM (inactive) | 66.7 µM (inactive) | 77.8 µM (inactive) | 34.8 µM (inactive) | 45.3 µM (inactive) | – | –
O=C1CCC(Cl)=CC2CCCN12 (stereo not given) | > 100 µM (inactive) | > 100 µM (inactive) | > 100 µM (inactive) | > 100 µM (inactive) | – | > 100 µM (inactive) | > 100 µM (inactive) | > 100 µM (inactive) | > 100 µM (inactive) | > 100 µM (inactive) | > 100 µM (inactive) | > 100 µM (inactive) | > 10 µM (inactive) | – | > 100 µM (inactive) | – | – | – | –
COc1ccc(-c2c(C3=NCCCN3)nnn2-c2ccccc2)cc1 | > 100 µM (inactive) | > 100 µM (inactive) | > 100 µM (inactive) | > 100 µM (inactive) | > 100 µM (inactive) | > 100 µM (inactive) | > 100 µM (inactive) | > 100 µM (inactive) | > 100 µM (inactive) | > 100 µM (inactive) | > 100 µM (inactive) | > 100 µM (inactive) | > 100 µM (inactive) | > 100 µM (inactive) | > 100 µM (inactive) | > 100 µM (inactive) | > 100 µM (inactive) | – | –
C=CCNC(=S)OCCCCCCCCCC | 19 µM (inactive) | 16.5 µM (inactive) | 16.7 µM (inactive) | 20 µM (inactive) | 19.1 µM (inactive) | – | 18.8 µM (inactive) | 11.7 µM (inactive) | 18.6 µM (inactive) | 18.7 µM (inactive) | 17.6 µM (inactive) | 21.7 µM (inactive) | 15.7 µM (inactive) | – | 12.3 µM (inactive) | 12.4 µM (inactive) | 20.9 µM (inactive) | – | –
CN1CCc2c1nc(-c1ccccc1)c1c2N(C)CC1 | 60.8 µM (inactive) | > 100 µM (inactive) | > 100 µM (inactive) | > 100 µM (inactive) | 30.1 µM (inactive) | 34.7 µM (inactive) | 39.6 µM (inactive) | > 100 µM (inactive) | 31.1 µM (inactive) | 86.9 µM (inactive) | 71.1 µM (inactive) | 43.8 µM (inactive) | 60.5 µM (inactive) | – | > 100 µM (inactive) | 48.4 µM (inactive) | – | – | –
Nc1ccc2nc(Nc3ccc(Cl)c(Cl)c3)cnc2c1 | 29.5 µM (inactive) | – | 19.4 µM (inactive) | – | > 10 µM (inactive) | 19.4 µM (inactive) | 12.2 µM (inactive) | 19.2 µM (inactive) | 16.2 µM (inactive) | 17.9 µM (inactive) | 17.6 µM (inactive) | 18.9 µM (inactive) | 1.11 µM (active) | 6.37 µM (inactive) | 20 µM (inactive) | 15.6 µM (inactive) | 2.44 µM (inactive) | – | –
CCOC(=O)c1c(-c2ccc(OC)c(O)c2)c(C#N)c(=S)n(C2OC(CO)C(O)C(O)C2O)c1-c1ccccc1 (stereo not given) | – | > 100 µM (inactive) | > 100 µM (inactive) | > 100 µM (inactive) | > 100 µM (inactive) | > 100 µM (inactive) | > 100 µM (inactive) | – | > 100 µM (inactive) | > 100 µM (inactive) | > 100 µM (inactive) | > 100 µM (inactive) | > 100 µM (inactive) | – | – | > 100 µM (inactive) | > 100 µM (inactive) | > 100 µM (inactive) | > 100 µM (inactive)
